Measured values: patent US6358883B1, “Pesticidal and parasiticidal use of 1-aryl-1-(substituted thio, sulfinyl and sulfonyl)-2-nitroethane compounds” (American Cyanamid Company, priority 1998, dated 2002)

How the values were obtained:
Assay type in all cases: in vivo
[1] = tested on: Spodoptera eridania, eggs-southern armyworm (SAW-Eggs); test: Southern armyworm eggs (SAW-Eggs) treated diet test; parameters: key: 0 = no effect; 1 = 10-25% kill; 2 = 26-35% kill; 3 = 36-45% kill; 4 = 46-55% kill; 5 = 56-65% kill; 6 = 66-75% kill; 7 = 76-85% kill; 8 = 86-99% kill; 9 = 100% kill; details: mortality after 7 days
Procedure, shortened: (§1)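 Compounds dissolved at 10,000 ppm in 35% acetone/water, diluted with water, applied to artificial diet in wells and dried. Southern corn rootworm or southern armyworm eggs placed on treated diet under vented covers; mortality counted after 7 days.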

[2] = tested on: Tetranychus urticae (OP-resistant strain), 2-spotted spider mite (TSM); test: 2-spotted spider mite (TSM) plant dip test; parameters: key: 0 = no effect; 1 = 10-25% kill; 2 = 26-35% kill; 3 = 36-45% kill; 4 = 46-55% kill; 5 = 56-65% kill; 6 = 66-75% kill; 7 = 76-85% kill; 8 = 86-99% kill; 9 = 100% kill; details: mortality after 2 days
Procedure, shortened: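 OP-resistant mites (~100 per leaf) were transferred onto Sieva lima bean primary leaves about 2 h before treatment. Infested plants were dipped for 3 s in compound from a 10,000 ppm stock in 35% acetone/water, diluted with water. Mortality was counted after 2 days.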

[3] = tested on: Diabrotica undecimpunctata howardi, eggs-southern corn rootworm (SCR-Eggs); test: Southern corn rootworm eggs (SCR-Eggs) treated diet test; parameters: key: 0 = no effect; 1 = 10-25% kill; 2 = 26-35% kill; 3 = 36-45% kill; 4 = 46-55% kill; 5 = 56-65% kill; 6 = 66-75% kill; 7 = 76-85% kill; 8 = 86-99% kill; 9 = 100% kill; details: mortality after 7 days
Procedure, shortened: as §1

[4] = tested on: C. elegans (Bristol strain); test: Evaluation of test compounds against C. elegans (motility, 96-well plate); parameters: key: 9=complete kill in 4 hours; 8=complete kill in 24 hours; 7=markedly reduced motility in approximately 95% of worms in 24 hours; 0=normal motility, same as controls; details: motility at 4 and 24 hours
Procedure, shortened: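 Bristol-strain C. elegans in Na buffer added to wells containing dried compound (applied in 80% acetone) and incubated at 20 °C. Motility of adults and larvae scored subjectively but semi-quantitatively under a dissecting microscope at 4 and 24 h after immersion, plates tapped before reading.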

[5] = tested on: Diabrotica virgifera virgifera Leconte, 2nd instar western corn rootworm (WCR); test: Western corn rootworm (WCR) soil test; parameters: key: 0 = no effect; 1 = 10-25% kill; 2 = 26-35% kill; 3 = 36-45% kill; 4 = 46-55% kill; 5 = 56-65% kill; 6 = 66-75% kill; 7 = 76-85% kill; 8 = 86-99% kill; 9 = 100% kill
Procedure, shortened: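 Compound in 35% acetone/water applied to talc at 1.25 mg active ingredient per jar (about 50 kg/ha), solvent evaporated, then mixed with millet seed and moist soil. Ten 2nd-instar larvae per jar; mortality counted after 5 days, missing larvae scored dead.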

[6] = tested on: Spodoptera eridania, 2nd instar larvae, southern armyworm (SAW); test: Southern armyworm (SAW) leaf dip test; parameters: key: 0 = no effect; 1 = 10-25% kill; 2 = 26-35% kill; 3 = 36-45% kill; 4 = 46-55% kill; 5 = 56-65% kill; 6 = 66-75% kill; 7 = 76-85% kill; 8 = 86-99% kill; 9 = 100% kill
Procedure, shortened: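 Compound is dissolved at 10,000 ppm in 35% acetone/water, then diluted with water. Lima bean leaves are dipped for 3 seconds, dried and placed with ten 2nd instar larvae on damp filter paper. Mortality, reduced feeding and molting interference are scored at 5 days.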

[7] = tested on: Aphis gossypii, cotton aphid (CA); test: Cotton aphid (CA) cotyledon dip test; parameters: key: 0 = no effect; 1 = 10-25% kill; 2 = 26-35% kill; 3 = 36-45% kill; 4 = 46-55% kill; 5 = 56-65% kill; 6 = 66-75% kill; 7 = 76-85% kill; 8 = 86-99% kill; 9 = 100% kill; details: mortality after 5 days
Procedure, shortened: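 Cotyledon-stage cotton plants infested overnight via a heavily infested leaf, then dipped in test solution (compound in 35% acetone/water, diluted with water) and dried. Mortality counted after 5 days.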

[8] = tested on: M. incognita (Root Knot Nematode) larvae; test: Evaluation of test compounds against M. incognita larvae in microtiter plate wells (movement score); details: larvae scored for movement after 20-24 hours; further: key: A score of '9' indicates inactive worms with a straight, sticklike morphology; A score of '8' indicates inactive worms with a limp, curled or curved morphology; A score of '7' indicates dead/paralyzed worms after 72 hours
Procedure, shortened: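 Newly emerged M. incognita larvae in S Medium (buffered salt solution), 50-65 worms per well, exposed to test compounds in sealed microtiter wells. Movement scored after 20-24 h incubation; wells with obviously dead/paralyzed larvae scored positive. A score of "7" denotes dead/paralyzed worms after […].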

O=[N+]([O-])CC(SCc1ccccc1)c1c(Cl)cccc1Cl (stereo not shown) [Example 137]
SAW Eggs (300 ppm) rating [1]: 9 (9 = 100% kill)
TSM (300 ppm) rating [2]: 0
SCR Eggs (1000 ppm) rating [3]: 9 (9 = 100% kill)
Rating Against C. elegans (150 ppm) [4]: 0
WCR (50 ppm) rating [5]: 0
SAW (300 ppm) rating [6]: 0
CA (300 ppm) rating [7]: 0
M. incognita (150 ppm) score [8]: 0

CCCCOC(=O)CSC(C[N+](=O)[O-])c1ccc2c(c1)OCO2 (stereo not shown) [Example 20]
SAW Eggs (300 ppm) rating [1]: 0
TSM (300 ppm) rating [2]: 0
SCR Eggs (1000 ppm) rating [3]: 0
Rating Against C. elegans (150 ppm) [4]: 8
WCR (50 ppm) rating [5]: 0
SAW (300 ppm) rating [6]: 0
CA (300 ppm) rating [7]: 0
M. incognita (150 ppm) score [8]: 9

CCOC(=O)CSC(C[N+](=O)[O-])c1ccc(OC)cc1 (stereo not shown) [Example 48]
SAW Eggs (300 ppm) rating [1]: 0
TSM (300 ppm) rating [2]: 0
SCR Eggs (1000 ppm) rating [3]: 0
Rating Against C. elegans (150 ppm) [4]: 9
WCR (50 ppm) rating [5]: 0
SAW (300 ppm) rating [6]: 0
CA (300 ppm) rating [7]: 0
M. incognita (150 ppm) score [8]: 9

CCCCC(CC)COC(=O)CSC(C[N+](=O)[O-])c1ccc(OC)cc1 (stereo not shown) [Example 51]
SAW Eggs (300 ppm) rating [1]: 9 (9 = 100% kill)
TSM (300 ppm) rating [2]: 0
SCR Eggs (1000 ppm) rating [3]: 8 (8 = 86-99% kill)
Rating Against C. elegans (150 ppm) [4]: 0
WCR (50 ppm) rating [5]: 4 (4 = 46-55% kill)
SAW (300 ppm) rating [6]: 0
CA (300 ppm) rating [7]: 0
M. incognita (150 ppm) score [8]: 0

COc1ccc(C(C[N+](=O)[O-])SCC(=O)OCc2ccccc2)cc1 (racemic) [Example 108]
SAW Eggs (300 ppm) rating [1]: 9 (9 = 100% kill)
TSM (300 ppm) rating [2]: 0
SCR Eggs (1000 ppm) rating [3]: 0
Rating Against C. elegans (150 ppm) [4]: 8
WCR (50 ppm) rating [5]: 0
SAW (300 ppm) rating [6]: 0
CA (300 ppm) rating [7]: 0
M. incognita (150 ppm) score [8]: 9

CCCOC(=O)CSC(C[N+](=O)[O-])c1ccc(OC(F)(F)F)cc1 (racemic) [Example 119]
SAW Eggs (300 ppm) rating [1]: 9 (9 = 100% kill)
TSM (300 ppm) rating [2]: 3 (3 = 36-45% kill)
SCR Eggs (1000 ppm) rating [3]: 0
Rating Against C. elegans (150 ppm) [4]: 8
WCR (50 ppm) rating [5]: 0
SAW (300 ppm) rating [6]: 0
CA (300 ppm) rating [7]: 0
M. incognita (150 ppm) score [8]: 9

CCOC(=O)CSC(C[N+](=O)[O-])c1cccnc1 (stereo not shown) [Example 172]
SAW Eggs (300 ppm) rating [1]: 0
TSM (300 ppm) rating [2]: 0
SCR Eggs (1000 ppm) rating [3]: 0
Rating Against C. elegans (150 ppm) [4]: 8
WCR (50 ppm) rating [5]: 0
SAW (300 ppm) rating [6]: 0
CA (300 ppm) rating [7]: 0
M. incognita (150 ppm) score [8]: 9

COC(=O)CSC(C[N+](=O)[O-])c1c(Cl)cccc1Cl (stereo not shown) [Example 131]
SAW Eggs (300 ppm) rating [1]: 0
TSM (300 ppm) rating [2]: 0
SCR Eggs (1000 ppm) rating [3]: 0
Rating Against C. elegans (150 ppm) [4]: 7
WCR (50 ppm) rating [5]: 0
SAW (300 ppm) rating [6]: 0
CA (300 ppm) rating [7]: 0
M. incognita (150 ppm) score [8]: 9

CCCCOC(=O)CSC(C[N+](=O)[O-])c1ccc(OC)cc1 (stereo not shown) [Example 49]
SAW Eggs (300 ppm) rating [1]: 0
TSM (300 ppm) rating [2]: 0
SCR Eggs (1000 ppm) rating [3]: 0
Rating Against C. elegans (150 ppm) [4]: 9
WCR (50 ppm) rating [5]: 0
SAW (300 ppm) rating [6]: 0
CA (300 ppm) rating [7]: 0
M. incognita (150 ppm) score [8]: 9

COC(=O)CSC(C[N+](=O)[O-])c1cccnc1 (stereo not shown) [Example 171]
SAW Eggs (300 ppm) rating [1]: 0
TSM (300 ppm) rating [2]: 0
SCR Eggs (1000 ppm) rating [3]: 0
Rating Against C. elegans (150 ppm) [4]: 7
WCR (50 ppm) rating [5]: 0
SAW (300 ppm) rating [6]: 0
CA (300 ppm) rating [7]: 0
M. incognita (150 ppm) score [8]: 9

CCOC(=O)CSC(C[N+](=O)[O-])c1cccc(OC)c1 (stereo not shown) [Example 56]
SAW Eggs (300 ppm) rating [1]: 0
TSM (300 ppm) rating [2]: 5 (5 = 56-65% kill)
SCR Eggs (1000 ppm) rating [3]: 0
Rating Against C. elegans (150 ppm) [4]: 8
WCR (50 ppm) rating [5]: 0
SAW (300 ppm) rating [6]: 0
CA (300 ppm) rating [7]: 0
M. incognita (150 ppm) score [8]: 9

CCCCOC(=O)CSC(C[N+](=O)[O-])c1cccnc1 (stereo not shown) [Example 173]
SAW Eggs (300 ppm) rating [1]: 0
TSM (300 ppm) rating [2]: 0
SCR Eggs (1000 ppm) rating [3]: 0
Rating Against C. elegans (150 ppm) [4]: 8
WCR (50 ppm) rating [5]: 0
SAW (300 ppm) rating [6]: 0
CA (300 ppm) rating [7]: 0
M. incognita (150 ppm) score [8]: 9

O=C(CSC(C[N+](=O)[O-])c1cccnc1)OCc1ccccc1 (stereo not shown) [Example 174]
SAW Eggs (300 ppm) rating [1]: 0
TSM (300 ppm) rating [2]: 0
SCR Eggs (1000 ppm) rating [3]: 0
Rating Against C. elegans (150 ppm) [4]: 0
WCR (50 ppm) rating [5]: 0
SAW (300 ppm) rating [6]: 0
CA (300 ppm) rating [7]: 0
M. incognita (150 ppm) score [8]: 9

CCCSC(C[N+](=O)[O-])c1cccnc1 (stereo not shown) [Example 175]
SAW Eggs (300 ppm) rating [1]: 0
TSM (300 ppm) rating [2]: 0
SCR Eggs (1000 ppm) rating [3]: 0
Rating Against C. elegans (150 ppm) [4]: 0
WCR (50 ppm) rating [5]: 0
SAW (300 ppm) rating [6]: 0
CA (300 ppm) rating [7]: 0
M. incognita (150 ppm) score [8]: 9

CCCCOC(=O)CSC(C[N+](=O)[O-])c1cccc(OC)c1 (stereo not shown) [Example 57]
SAW Eggs (300 ppm) rating [1]: 0
TSM (300 ppm) rating [2]: 0
SCR Eggs (1000 ppm) rating [3]: 0
Rating Against C. elegans (150 ppm) [4]: 7
WCR (50 ppm) rating [5]: 0
SAW (300 ppm) rating [6]: 0
CA (300 ppm) rating [7]: 0
M. incognita (150 ppm) score [8]: 9

COC(=O)CSC(C[N+](=O)[O-])c1ccccc1 (stereo not shown) [Example 4]
SAW Eggs (300 ppm) rating [1]: 0
TSM (300 ppm) rating [2]: 0
SCR Eggs (1000 ppm) rating [3]: 0
Rating Against C. elegans (150 ppm) [4]: 9
WCR (50 ppm) rating [5]: 4 (4 = 46-55% kill)
SAW (300 ppm) rating [6]: 0
CA (300 ppm) rating [7]: 5 (5 = 56-65% kill)
M. incognita (150 ppm) score [8]: 9

CCCCOC(=O)CSC(C[N+](=O)[O-])c1ccc2ccccc2c1 (racemic) [Example 113]
SAW Eggs (300 ppm) rating [1]: 9 (9 = 100% kill)
TSM (300 ppm) rating [2]: 0
SCR Eggs (1000 ppm) rating [3]: 0
Rating Against C. elegans (150 ppm) [4]: 9
WCR (50 ppm) rating [5]: 0
SAW (300 ppm) rating [6]: 3 (3 = 36-45% kill)
CA (300 ppm) rating [7]: 0
M. incognita (150 ppm) score [8]: 0

C=CCSC(C[N+](=O)[O-])c1ccc(OC)cc1 (stereo not shown) [Example 54]
SAW Eggs (300 ppm) rating [1]: 0
TSM (300 ppm) rating [2]: 0
SCR Eggs (1000 ppm) rating [3]: 0
Rating Against C. elegans (150 ppm) [4]: 9
WCR (50 ppm) rating [5]: 5 (5 = 56-65% kill)
SAW (300 ppm) rating [6]: 0
CA (300 ppm) rating [7]: 0
M. incognita (150 ppm) score [8]: 9

CC(C)CCCCCOC(=O)CSC(C[N+](=O)[O-])c1ccc2c(c1)OCO2 (stereo not shown) [Example 21]
SAW Eggs (300 ppm) rating [1]: 0
TSM (300 ppm) rating [2]: 0
SCR Eggs (1000 ppm) rating [3]: 0
Rating Against C. elegans (150 ppm) [4]: 0
WCR (50 ppm) rating [5]: 0
SAW (300 ppm) rating [6]: 0
CA (300 ppm) rating [7]: 7 (7 = 76-85% kill)
M. incognita (150 ppm) score [8]: 8

CCCOC(=O)CSC(C[N+](=O)[O-])c1cccc(OC)c1 (racemic) [Example 103]
SAW Eggs (300 ppm) rating [1]: 0
TSM (300 ppm) rating [2]: 4 (4 = 46-55% kill)
SCR Eggs (1000 ppm) rating [3]: 0
Rating Against C. elegans (150 ppm) [4]: 8
WCR (50 ppm) rating [5]: 0
SAW (300 ppm) rating [6]: 0
CA (300 ppm) rating [7]: 0
M. incognita (150 ppm) score [8]: 9
